According to article PMC6287599, “2,6-Bis(2-Benzimidazolyl)Pyridine (BBP) Is a Potent and Selective Inhibitor of Small Conductance Calcium-Activated Potassium (SK) Channels” (Frontiers in Pharmacology, 2018):
pIC50: −log10 of the molar value. Several values for one entry are separate records, joined by “and”; a condition that tells them apart may be missing. Equal entries are not always repeated.

Test system: all three SK channel subtypes
Assay: Automated patch clamp, summary over all three SK channel subtypes
Assay type: cell-based, human
Details: summary value, read-out: IC50 on all three SK channel subtypes (similar potency)
Protocol: Three different stable HEK293 cell lines expressing hSK1, hSK2 or hSK3 (NeuroSearch A/S, Ballerup, Denmark) and a CHO stable cell line expressing hERG (University of Copenhagen, Copenhagen, Denmark) were used for automated patch clamp. These cells were cultivated and prepared as previously described (Skarsfeldt et al., [2016]).
Automated patch clamp (QPatch 16, Sophion, Denmark) on SK-expressing HEK293 cell lines was conducted as previously described (Simó-Vicens et al., [2017b]). Briefly, SK currents were elicited by voltage-ramps starting at −80 mV and finishing at +80 mV from a holding potential of 0 mV. Extracellular solution contained 0.1 mM CaCl2, 3 mM MgCl2, 154 mM KCl, 10 mM HEPES and 10 mM glucose with pH 7.4. Intracellular solution for SK experiments contained 8.106 mM CaCl2 (final free calcium concentration of 400 nM), 1.167 mM MgCl2, 10 mM EGTA, 154 mM KCl, 10 mM HEPES, 31.25/ 10 mM KOH/EGTA and 15 mM KOH with pH 7.2. Automated patch clamp on hERG-expressing CHO cell line was performed also as previously described (Skarsfeldt et al., [2016]).
Where Y is the normalized response, from 100, corresponding to current recorded during saline perfusion, down to 0, corresponding to currents recorded in the presence of bicuculline methiodide 100 μM. X is the log of the BBP concentration. A standard Hill Slope of −1 was considered for this purpose. […]

pIC50: 6.40 and ~6.40
Structure (SMILES): c1cc(-c2nc3ccccc3[nH]2)nc(-c2nc3ccccc3[nH]2)c1 [BBP, 2,6-Bis(2-benzimidazolyl)pyridine]
